The test system of data set [1] is J774.A1 murine macrophage cells. The experiment in a line: MTT cell viability assay on macrophages. Format: cell-based. As for the experimental part:
(§1) The J774.A1 murine macrophage cells were grown in Roswell Park Memorial Institute (RPMI) 1640 medium in the presence of 10% (v/v) FBS and 100 U/ml penicillin−100 µg/ml streptomycin (Gibco, Invitrogen, Thermo Fisher Scientific, NY, USA) at 37°C (humidified) and 5% CO2. […] Madin–Darby canine kidney (MDCK) cells were obtained from the National Centre for Cell Science, Pune, India. MDCK cells were derived from the kidney tissue of an adult female Cocker Spaniel. These were grown in Dulbecco’s modified Eagle’s minimal essential medium (DMEM) in the presence of 10% (v/v) FBS and 100 U/ml penicillin−100 µg/ml streptomycin (Gibco, Invitrogen, Thermo Fisher Scientific, NY, USA) at 37°C (humidified) and 5% CO2 ([Ayana et al., 2018]; [Shivappagowdar et al., 2021]).
(§2) All the compounds were dissolved in dimethyl sulfoxide (DMSO) (Sigma-Aldrich) for 1 mM stock solution and were screened against promastigotes at a concentration of 5 µM. For Glycosides (Gly) 2, 6, and 8, a range of concentrations starting from 100 nM to 100 µM were screened against promastigote forms of parasite and mammalian cells. Parasites (AG83 and PKDL strain) treated with amphotericin B (3 µg/ml) (Sigma-Aldrich) were maintained as the positive control.
(§3) To evaluate the cytotoxic effects of 12 compounds on L. donovani promastigotes, LDH assay was performed. This assay involves the reduction of tetrazolium salts to formazan during LDH-mediated catalysis of lactate to pyruvate, which can be detected at […]. Rate of formazan formation is proportional to the release of LDH through damaged cell membranes. For the preliminary screening, the promastigotes were incubated with 12 compounds at a single concentration of 5 µM for a period of 72 h, and the released LDH was estimated ( Supplementary Figure S1A ). Amphotericin B-treated promastigotes were taken as the positive control. […] Having observed the antileishmanial effect of Gly2 on growth and proliferation of promastigotes, we next investigated the cytotoxicity of Gly2 on mammalian cells (MDCK, J774.1A) through MTT (3-(4, 5-dimethylthiazolyl-2)-2, 5-diphenyltetrazolium bromide) cell viability assay ( Supplementary Figures S1B, C ). […] The CC50 values of Gly2 analog was in the micromolar range. The selectivity index (SI) for the compound was calculated as the ratio between cytotoxicity (CC50) and activity (IC50) against promastigotes ( Table 1 ).

Data set [2] has as its system L. donovani promastigotes (AG83 strain). The experiment in a line: LDH cytotoxicity assay on promastigotes, AG83 strain. It counts as cell-based, Leishmania donovani. As for the experimental part:
Promastigote forms of L. donovani (MHOM/IN/1983/AG83) were cultured at 26°C in M199 (GIBCO, India), pH 7.4, supplemented with 10% (v/v) inactivated fetal bovine serum (FBS, GIBCO, India) and 0.02 mg/ml gentamycin (Life Technologies, USA). The clinical isolate of PKDL, BS12, was obtained as a gift from Prof. Mitali Chatterjee [Department of Pharmacology, Institute of Postgraduate Medical Education and Research (IPGMER), Kolkata, India]. BS12 was routinely cultured at 22°C in M199 (GIBCO, India) with 100 U/ml penicillin-streptomycin (Gibco, Invitrogen, Thermo Fisher Scientific, NY, USA), 8 μM hemin (4 mM stock made in 50% triethanolamine) (Sigma, USA), 25 mM 4-(2-hydroxyethyl)-1-piperazineethanesulfonic acid (HEPES), supplemented with 10% heat-inactivated FBS (GIBCO, India). Cultures were maintained between 10^6 and 10^7 cells/ml for continuous exponential growth. In addition, 1 × 10^6 cells/ml parasite count was constantly maintained for all the experiments ([Ramu et al., 2017]).
as §2
AG83 strain of L. donovani were exposed to various Gly compound concentrations (100 nM–100 µM) in a 96-well microtiter plate (100 µl/well volume) and were incubated for 72 h at 26°C. Finally, lactate dehydrogenase (LDH) cytotoxic assay was performed as per standard protocol (CytoTox 96 Non-Radioactive Cytotoxicity Assay-Promega, USA). The percent cytotoxicity of test compounds was calculated by normalizing with amphotericin B as 100%. Further percentage growth inhibition was calculated using the formula:
% Growth Inhibition = Gly treated LDH activity- Spontaneous LDH activity
/Maximum LDH activity- Spontaneous LDH activity * 100
As per the formula, the spontaneous LDH Activity = activity of the untreated cells and the maximum LDH activity = activity of the amphotericin B-treated cells. IC50 value for Gly2, 6, and 8 treated was generated for AG83 and PKDL strain of L. donovani using sigmoidal dose–response model with nonlinear regression tool ([Ramu et al., 2017]).

The test system of data set [3] is L. donovani intracellular amastigotes in J774.A1 macrophages. Briefly: Intramacrophage amastigote assay (Giemsa staining, J774.A1). Format: cell-based, Leishmania donovani. As to conditions: treated at IC50 concentration, 24 h; untreated control ~5. As for the experimental part: For evaluating the efficacy of compounds against intramacrophage amastigotes, Giemsa staining (Sigma-Aldrich) was performed. J774.A1 murine macrophage cells were plated at a cell density of 5 × 10^5 cell/well in a 6-well flat bottom plate. The cells were infected with late-stage L. donovani, rich in promastigotes at a ratio of 10:1. After 6 h, uninfected promastigotes were washed off with PBS.

A short description of data set [4]: MTT cell viability assay on macrophages. To be noted: mouse, J774.A1 macrophage cells; Table 1; macrophages. Format: cell-based, murine. As for the experimental part: as §1, §2, §3
Data set [5] concerns L. donovani promastigotes. The experiment in a line: Hoechst/PI live/dead dual staining of promastigotes. As to conditions: 5 µM, 72 h. It counts as cell-based, Leishmania donovani. On the procedure: The toxic effect of the three compounds, Gly2, 6, and 8 on promastigotes at 5 µM >IC50 concentration was measured by Hoechst and propidium iodide (PI) double staining. […], parasites were harvested, washed in 0.01 M PBS (pH = 7.4), and stained with Hoechst 33258 (1 µg/ml) (Life Technologies, USA) and PI (5 µg/ml) (Life Technologies, USA) followed by incubation for a period of 20 min at 37°C. Subsequently, cells were washed for excessive stain removal and visualized using fluorescence microscope with 510–560-nm filter block for PI red fluorescence and excitation/emission spectra at 361/497 for Hoechst ([López-Arencibia et al., 2015]).

The mark [6] stands for this setting: Table 1, activity against promastigotes.
Where [7] appears, read: Leishmania donovani, AG83 promastigotes, LDH assay 72 h, sigmoidal curve, normalised to amphotericin B 3 µg/ml as 100%.
[8] abbreviates: Leishmania donovani, Table 1, activity against promastigotes.

Here are results for 11 compounds from paper PMC9115111, “Metalloprotease Gp63-Targeting Novel Glycoside Exhibits Potential Antileishmanial Activity” (Frontiers in Cellular and Infection Microbiology, 2022).

Each structure is given as a SMILES string.

Compound `CCOC1O[C@H](CO)[C@@H](O)[C@H](O)[C@H]1NC(C)=O` (stereo partly drawn) [Gly1, ethyl glycoside N-Acetyl-D-glucosamine] yielded a CC50 in data set [1] of 248 µM. In data set [2] (setting [6]), this compound showed a half-maximal inhibitory concentration (IC50) of 65 µM.

As for `CCCCCCOC1O[C@H](CO)[C@@H](O)[C@H](O)[C@H]1O` (stereo partly shown) [Gly3], in data set [1], it took 1680 µM to reach half-maximal cytotoxicity (CC50). In addition, in data set [2] (setting [6]), the IC50 amounted to 12.7 µM.

Compound `CCCCOC1O[C@H](COC(C)=O)[C@@H](OC(C)=O)[C@H](OC(C)=O)[C@H]1OC(C)=O` (stereo partly shown) [Gly4] had a half-maximal cytotoxic concentration (CC50) in data set [1] of 167 µM. The compound further returned a half-inhibitory concentration (IC50) in data set [2] (setting [6]) of 4.6 µM.

In data set [1], `CCCCCCOC1O[C@H](COC(C)=O)[C@@H](OC(C)=O)[C@H](OC(C)=O)[C@H]1OC(C)=O` (stereo partly shown) [Gly5] yielded a CC50 of 159 µM. In addition, in data set [2] (setting [6]), the IC50 worked out at 5.97 µM.

With `CC(=O)OC[C@H]1OC(OCCC(C)C)[C@H](OC(C)=O)[C@@H](OC(C)=O)[C@@H]1OC(C)=O` (stereo partly shown) [Gly6], the “number of amastigotes per infected macrophage” value in data set [3] was ~ 3 amastigotes/macrophages. Moreover, half-maximal cytotoxicity in data set [4] (CC50) was put at 1030 µM. Besides, the “dead parasites (PI positive)” value in data set [5] is on record as ~ 33.72%. Moreover, the values for the half-inhibitory concentration (IC50) in data set [2] (setting [7]) and in data set [2] (setting [8]) were 2.94 µM and 3.4 µM, respectively.

`CCOC1O[C@H](COC(C)=O)[C@@H](OC(C)=O)[C@H](OC(C)=O)[C@H]1OC(C)=O` (stereo partly shown) [Gly7] gave a 50% cytotoxic concentration (CC50) in data set [1] of 299 µM. Also, it took 77 µM to reach half-maximal inhibition in data set [2] (setting [6]) (IC50).

Regarding `CCCOC1O[C@H](COC(C)=O)[C@@H](OC(C)=O)[C@H](OC(C)=O)[C@H]1OC(C)=O` (stereo partly drawn) [Gly8, (2R,3R,4S,5R)-2-(acetoxymethyl)-6-propoxytetrahydro-2H-pyran-3,4,5-triyl triacetate], in data set [3], the “number of amastigotes per infected macrophage” value is listed as roughly 2 amastigotes/macrophages. In data set [4], the 50% cytotoxic concentration (CC50) is 959 µM. Further, the “dead parasites (PI positive)” value in data set [5] is 75.47%. Besides, the concentration for half-maximal inhibition (IC50) was 1.61 µM in data set [2] (setting [7]) and 1.6 µM in data set [2] (setting [8]).

`CC(=O)OC[C@H]1OC(OC(C)C)[C@H](OC(C)=O)[C@@H](OC(C)=O)[C@@H]1OC(C)=O` (stereo partly shown) [Gly9] displayed a half-maximal cytotoxic concentration (CC50) in data set [1] of 256 µM. The compound further returned an IC50 in data set [2] (setting [6]) of 36 µM.

Compound `CCCOC1O[C@H](COC(C)=O)[C@@H](OC(C)=O)[C@H](OC(C)=O)[C@H]1NC(C)=O` (stereo partly shown) [Gly10] gave a CC50 in data set [1] of 239 µM. The same compound yielded a concentration for half-maximal inhibition (IC50) in data set [2] (setting [6]) of 25.2 µM.

Compound `CC(=O)N[C@H]1[C@@H](OCCC(C)C)O[C@H](COC(C)=O)[C@@H](OC(C)=O)[C@@H]1OC(C)=O` [Gly11] showed a CC50 in data set [1] of 179 µM. Further, the IC50 in data set [2] (setting [6]) came to 43 µM.

Consider `CCCCO[C@H]1O[C@H](COC(C)=O)[C@@H](OC(C)=O)[C@H](OC(C)=O)[C@H]1NC(C)=O` [Gly12], for which it took 279 µM to reach half-maximal cytotoxicity in data set [1] (CC50). The same compound showed a concentration for half-maximal inhibition (IC50) in data set [2] (setting [6]) of 95 µM.
